Reference: US20260325685A1, “Radiopharmaceutical Compositions Targeting Carbonic Anhydrase IX and Uses Thereof” (RayzeBio, Inc., priority 2023, published 2026)
Read-outs that look alike come from different tables or passages of the source.

Experiments:
human CA-XII = target: T1, human CA-XII (Homo sapiens, UniProt O43570); test: Surface Plasmon Resonance (SPR) binding kinetics to recombinant human CA-XII (Biacore 8K, single-cycle kinetics, 1:1 binding model)
T1 construct: purchased Creative BioMart CA12-261H
T1 sequence (O43570 25-354): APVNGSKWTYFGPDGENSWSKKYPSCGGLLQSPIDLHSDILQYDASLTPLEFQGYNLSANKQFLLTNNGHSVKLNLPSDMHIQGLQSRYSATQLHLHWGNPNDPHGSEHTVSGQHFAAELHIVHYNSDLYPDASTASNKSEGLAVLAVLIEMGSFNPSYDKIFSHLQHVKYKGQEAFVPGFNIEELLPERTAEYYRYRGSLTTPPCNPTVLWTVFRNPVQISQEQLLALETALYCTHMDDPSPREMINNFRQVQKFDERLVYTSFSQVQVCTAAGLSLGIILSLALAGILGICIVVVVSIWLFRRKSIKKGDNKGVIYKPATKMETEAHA
Procedure, shortened: (§1)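 Using captured protein at 1200-1800 RU, we injected compound at 100-0.39 nM in 1% DMSO buffer, pH 7.4, 25° C, then corrected curves for reference and DMSO to obtain rate constants.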

human CA-IX = target: T2, human CA-IX (Homo sapiens, UniProt Q16790); test: Surface Plasmon Resonance (SPR) binding kinetics to recombinant human CA-IX (Biacore 8K, single-cycle kinetics, 1:1 binding model)
T2 construct: purchased Acro CA9-H82E3
Procedure, shortened: as §1

[1] = Chelated Metal: Lu-175, 25° C., pH 7.4, read-out: CAXII KD
[2] = Chelated Metal: Lu-175; SPR, 25° C., pH 7.4; read-out: CAIX KD
[3] = read-out: CAXII KD, Chelated Metal: Lu-175, 25° C., pH 7.4
[4] = read-out: CAIX KD; Chelated Metal: Lu-175; SPR, 25° C., pH 7.4

Row | Compound | Kd (human CA-XII; [1]) | Kd (human CA-IX; [2]) | further results
1 | NS(=O)(=O)c1nnc(NC(=O)C23CC(c4cn(CCNC(=O)[C@@H]5CN(C(=O)CN6CCN(CC(=O)O)CCN(CC(=O)O)CCN(CC(=O)O)CC6)CCN5C(=O)C[C@H](NC(=O)C[C@H](NC(=O)Cc5n[nH]c6ccccc56)C(=O)O)C(=O)O)nn4)(C2)C3)s1.[Lu+3] [Compound 109.10] | 2.5 to 10 nM | < 1 nM | 
2 | CC(CCC(=O)N[C@@H](CC(=O)N[C@@H](CC(=O)N[C@@H](CCCCn1cc(C23CCC(C(=O)Nc4nnc(S(N)(=O)=O)s4)(CC2)C3)nn1)C(=O)N1CCC(NC(=O)CN2CCN(CC(=O)O)CCN(CC(=O)O)CCN(CC(=O)O)CC2)CC1)C(=O)O)C(=O)O)(c1ccc(O)cc1)c1ccc(O)cc1.[Lu+3] [Compound 100.12] | < 1 nM | < 1 nM | 
3 | NS(=O)(=O)c1nnc(NC(=O)C23CC(c4cn(CCNC(=O)[C@@H]5CN(C(=O)CN6CCN(CC(=O)O)CCN(CC(=O)O)CCN(CC(=O)O)CC6)CCN5C(=O)C[C@H](NC(=O)C[C@H](NC(=O)c5ccc(C6(C(F)(F)F)CC6)cc5)C(=O)O)C(=O)O)nn4)(C2)C3)s1.[Lu+3] [Compound 109.24] | 2.5 to 10 nM | 1 to 2.5 nM | 
4 | CC(CCCC(=O)N1CCOC[C@H]1C(=O)N[C@@H](CC(=O)N1CCN(C(=O)CCOCCOCCOCCOCCN(CCOCCOCCOCCOCCC(=O)N2CCN(C(=O)C[C@H](NC(=O)[C@@H]3COCCN3C(=O)CCCC(C)(c3ccc(O)cc3)c3ccc(O)cc3)C(=O)O)[C@@H](C(=O)NCCn3cc(C45CC(C(=O)Nc6nnc(S(N)(=O)=O)s6)(C4)C5)nn3)C2)C(=O)CNC(=O)CN2CCN(CC(=O)O)CCN(CC(=O)O)CCN(CC(=O)O)CC2)C[C@@H]1C(=O)NCCn1cc(C23CC(C(=O)Nc4nnc(S(N)(=O)=O)s4)(C2)C3)nn1)C(=O)O)(c1ccc(O)cc1)c1ccc(O)cc1.[Lu+3] [Compound 131.3] | < 1 nM | < 1 nM | 
5 | NC(=O)C1(C(=O)NCC(=O)N2CCN(C(=O)CN3CCN(CC(=O)O)CCN(CC(=O)O)CCN(CC(=O)O)CC3)C[C@H]2C(=O)NCCn2cc(C34CC(C(=O)Nc5nnc(S(N)(=O)=O)s5)(C3)C4)nn2)CCN(C(=O)c2ccc(C3CC3)nn2)CC1.[Lu+3] [Compound 113] |  |  | Kd (human CA-XII; [3]): > 10 nM; Kd (human CA-IX; [4]): 2.5 to 10 nM
6 | NS(=O)(=O)c1nnc(NC(=O)C23CC(c4cn(CCNC(=O)[C@@H]5CN(C(=O)CN6CCN(CC(=O)O)CCN(CC(=O)O)CCN(CC(=O)O)CC6)CCN5C(=O)C[C@H](NC(=O)C[C@H](NC(=O)c5cnc(C6CC6)nc5)C(=O)O)C(=O)O)nn4)(C2)C3)s1.[Lu+3] [Compound 109.23] | > 10 nM | 2.5 to 10 nM | 
7 | CCCCNc1c(F)c(S(N)(=O)=O)c(F)c(F)c1S(=O)(=O)CCOCc1cn(CCNC(=O)[C@H]2CN(C(=O)CN3CCN(CC(=O)O)CCN(CC(=O)O)CCN(CC(=O)O)CC3)CCN2C(=O)C[C@H](NC(=O)[C@@H]2COCCN2C(=O)CCC(C)(c2ccc(O)cc2)c2ccc(O)cc2)C(=O)O)nn1.[Lu+3] [Compound 107.15] | > 10 nM | 1 to 2.5 nM | 
8 | NS(=O)(=O)c1nnc(NC(=O)C23CC(c4cn(CCNC(=O)[C@H]5CN(C(=O)CN6CCN(CC(=O)O)CCN(CC(=O)O)CCN(CC(=O)O)CC6)CCN5C(=O)[C@@H]5COCCN5C(=O)CCc5n[nH]c6ccccc56)nn4)(C2)C3)s1.[Lu+3] [Compound 108.1] | > 10 nM | 2.5 to 10 nM | 
9 | NS(=O)(=O)c1nnc(NC(=O)C23CC(c4cn(C[C@H]5CN(C(=O)CN6CCN(CC(=O)O)CCN(CC(=O)O)CCN(CC(=O)O)CC6)CCN5C(=O)CNC(=O)C5(C(=O)O)CCN(C(=O)Cc6n[nH]c7ccccc67)CC5)nn4)(C2)C3)s1.[Lu+3] [Compound 112.17] | 1 to 2.5 nM | < 1 nM | 
10 | NS(=O)(=O)c1nnc(NC(=O)C23CC(c4cn(CCNC(=O)[C@@H]5CN(C(=O)CN6CCN(CC(=O)O)CCN(CC(=O)O)CCN(CC(=O)O)CC6)CCN5C(=O)C[C@H](NC(=O)C[C@H](NC(=O)c5n[nH]c6ccccc56)C(=O)O)C(=O)O)nn4)(C2)C3)s1.[Lu+3] [Compound 109.7] | 2.5 to 10 nM | < 1 nM | 
11 | NS(=O)(=O)c1nnc(NC(=O)C23CCC(c4cn(CCNC(=O)[C@@H]5CN(C(=O)CN6CCN(CC(=O)O)CCN(CC(=O)O)CCN(CC(=O)O)CC6)CCN5C(=O)CC[C@H](NC(=O)C[C@H](NC(=O)c5ccc(C6CC6)nc5)C(=O)O)C(=O)O)nn4)(CC2)CC3)s1.[Lu+3] [Compound 109.56] | 1 to 2.5 nM | < 1 nM | 
12 | Cc1cc(C(=O)Nc2nnc(S(N)(=O)=O)s2)ccc1-c1cn(CCNC(=O)C2(NC(=O)CNC(=O)C3(C(N)=O)CCN(C(=O)CCCC(C)(c4ccc(O)cc4)c4ccc(O)cc4)CC3)CCN(C(=O)CC[C@H](C(=O)O)N3CCN(CC(=O)O)CCN(CC(=O)O)CCN(CC(=O)O)CC3)CC2)nn1.[Lu+3] [Compound 127.7] | > 10 nM | < 1 nM | 
13 | CC(CCCC(=O)N1CCC(C(N)=O)(C(=O)NCC(=O)N2CCN(C(=O)CN3CCN(CC(=O)O)CCN(CC(=O)O)CCN(CC(=O)O)CC3)C[C@H]2C(=O)NCCn2cc(C34CC(C(=O)Nc5nnc(S(N)(=O)=O)s5)(C3)C4)nn2)CC1)(c1ccc(O)cc1)c1ccc(O)cc1.[Lu+3] [Compound 107] | > 10 nM | < 1 nM | 
14 | CC(CCCC(=O)N1CCOC[C@H]1C(=O)N[C@@H](CC(=O)N1CCN(C(=O)CN2CCN(CC(=O)O)CCN(CC(=O)O)CCN(CC(=O)O)CC2)C[C@@H]1C(=O)NCCn1cc(C23CC(C(=O)Nc4nnc(S(N)(=O)=O)s4)(C2)C3)nn1)C(=O)O)(c1ccc(O)cc1)c1ccc(O)cc1.[Lu+3] [Compound 108.2] | > 10 nM | < 1 nM | 
15 | CC(CCCC(=O)N1CCC(C(=O)O)(C(=O)NCC(=O)N[C@@H](CCCCn2cc(CCCC(=O)Nc3nnc(S(N)(=O)=O)s3)nn2)C(=O)NCCOCCOCCNC(=O)CN2CCN(CC(=O)O)CCN(CC(=O)O)CCN(CC(=O)O)CC2)CC1)(c1ccc(O)cc1)c1ccc(O)cc1.[Lu+3] [Compound 102.1] | > 10 nM | < 1 nM | 
16 | CC(CCC(=O)N[C@@H](CC(=O)N[C@@H](CC(=O)N1CCN(C(=O)CCOCCOCCOCCOCCN(CCOCCOCCOCCOCCC(=O)N2CCN(C(=O)C[C@H](NC(=O)C[C@H](NC(=O)CCC(C)(c3ccc(O)cc3)c3ccc(O)cc3)C(=O)O)C(=O)O)[C@H](C(=O)NCCn3cc(C45CC(C(=O)Nc6nnc(S(N)(=O)=O)s6)(C4)C5)nn3)C2)C(=O)CNC(=O)CN2CCN(CC(=O)O)CCN(CC(=O)O)CCN(CC(=O)O)CC2)C[C@H]1C(=O)NCCn1cc(C23CC(C(=O)Nc4nnc(S(N)(=O)=O)s4)(C2)C3)nn1)C(=O)O)C(=O)O)(c1ccc(O)cc1)c1ccc(O)cc1 [Compound 131.2] |  |  | Kd (human CA-XII; Chelated Metal: None, 25° C., pH 7.4, read-out: CAXII KD): < 1 nM; Kd (human CA-IX; Chelated Metal: None; SPR, 25° C., pH 7.4; read-out: CAIX KD): < 1 nM
17 | NS(=O)(=O)c1nnc(NC(=O)C23CC(c4cn(CCNC(=O)[C@@H]5CN(C(=O)CN6CCN(CC(=O)O)CCN(CC(=O)O)CCN(CC(=O)O)CC6)CCN5C(=O)CNC(=O)C5(C(=O)O)CCN(C(=O)CCCc6n[nH]c7ccccc67)CC5)nn4)(C2)C3)s1.[Lu+3] [Compound 112.5] | > 10 nM | 2.5 to 10 nM | 
18 | CC(CCC(=O)N[C@@H](CC(=O)N[C@@H](CC(=O)N1CCN(C(=O)CN2CCN(CC(=O)O)CCN(CC(=O)O)CCN(CC(=O)O)CC2)CC1C(=O)NCCn1cc(C23CCC(C(=O)Nc4nnc(S(N)(=O)=O)s4)(CC2)C3)nn1)C(=O)O)C(=O)O)(c1ccc(O)cc1)c1ccc(O)cc1.[Lu+3] (stereo partly drawn) [Compound 107.1] | < 1 nM | < 1 nM | 
19 | CC(CCC(=O)N[C@@H](CC(=O)N[C@@H](CC(=O)NC1(CCCCn2cc(CCCCC(=O)Nc3nnc(S(N)(=O)=O)s3)nn2)CCN(C(=O)OCCOCCNC(=O)CN2CCN(CC(=O)O)CCN(CC(=O)O)CCN(CC(=O)O)CC2)CC1)C(=O)O)C(=O)O)(c1ccc(O)cc1)c1ccc(O)cc1.[Lu+3] [Compound 116.1] | 2.5 to 10 nM | 1 to 2.5 nM | 
20 | NS(=O)(=O)c1nnc(NC(=O)C23CC(c4cn(CCNC(=O)[C@@H]5CN(C(=O)CN6CCN(CC(=O)O)CCN(CC(=O)O)CCN(CC(=O)O)CC6)CCN5C(=O)C[C@H](NC(=O)C[C@H](NC(=O)c5ccc(S(F)(F)(F)(F)F)cc5)C(=O)O)C(=O)O)nn4)(C2)C3)s1.[Lu+3] [Compound 109.16] | 2.5 to 10 nM | < 1 nM | 
21 | CC(CCCC(=O)N1CCC(C(=O)O)(C(=O)NCC(=O)N[C@@H](CCCCn2cc(C34CC(C(=O)Nc5nnc(S(N)(=O)=O)s5)(C3)C4)nn2)C(=O)NCCOCCOCCNC(=O)CN2CCN(CC(=O)O)CCN(CC(=O)O)CCN(CC(=O)O)CC2)CC1)(c1ccc(O)cc1)c1ccc(O)cc1.[Lu+3] [Compound 102.6] | > 10 nM | < 1 nM | 
22 | CC(CCCC(=O)N1CCC2(CC2)C[C@H]1C(=O)N[C@@H](CC(=O)N1CCN(C(=O)CN2CCN(CC(=O)O)CCN(CC(=O)O)CCN(CC(=O)O)CC2)C[C@@H]1C(=O)NCCn1cc(C23CC(C(=O)Nc4nnc(S(N)(=O)=O)s4)(C2)C3)nn1)C(=O)O)(c1ccc(O)cc1)c1ccc(O)cc1.[Lu+3] [Compound 107.33] | > 10 nM | < 1 nM | 
23 | NS(=O)(=O)c1nnc(NC(=O)C23CC(c4cn(CCNC(=O)[C@@H]5CN(C(=O)CN6CCN(CC(=O)O)CCN(CC(=O)O)CCN(CC(=O)O)CC6)CCN5C(=O)C[C@H](Nc5ncc(C(=O)NCCc6ccc(C7CC7)cc6)cn5)C(=O)O)nn4)(C2)C3)s1.[Lu+3] [Compound 111.11] | > 10 nM | 1 to 2.5 nM | 
24 | NS(=O)(=O)c1nnc(NC(=O)C23CC(c4cn(CCNC(=O)[C@@H]5CN(C(=O)CN6CCN(CC(=O)O)CCN(CC(=O)O)CCN(CC(=O)O)CC6)CCN5C(=O)C[C@H](Nc5ncc(C(=O)NCc6ccc(S(F)(F)(F)(F)F)cc6)cn5)C(=O)O)nn4)(C2)C3)s1.[Lu+3] [Compound 111] |  |  | Kd (human CA-XII; [3]): > 10 nM; Kd (human CA-IX; [4]): 2.5 to 10 nM
